target: T1, Aurora kinase A (Homo sapiens, UniProt O14965); test: Inhibition of Aurora kinase A
T1 sequence (O14965 whole entry): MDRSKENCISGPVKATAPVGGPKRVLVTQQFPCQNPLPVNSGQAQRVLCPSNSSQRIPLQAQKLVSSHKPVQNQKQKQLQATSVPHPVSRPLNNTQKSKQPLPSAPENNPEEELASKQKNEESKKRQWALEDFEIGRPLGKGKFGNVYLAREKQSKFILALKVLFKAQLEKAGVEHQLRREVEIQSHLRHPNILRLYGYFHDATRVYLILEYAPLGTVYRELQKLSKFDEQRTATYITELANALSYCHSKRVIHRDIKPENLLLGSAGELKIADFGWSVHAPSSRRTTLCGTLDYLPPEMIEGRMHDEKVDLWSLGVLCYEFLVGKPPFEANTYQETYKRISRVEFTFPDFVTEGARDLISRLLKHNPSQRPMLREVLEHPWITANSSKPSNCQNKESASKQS

| IC50 [µM] | Structure (SMILES) |
| --- | --- |
| > 100 | CCCCCCNc1ncnc2nc[nH]c12 |
| 17 | CCCCNC(=O)c1cccc(NC(=O)CCCCCCNc2cc(N)ncn2)c1 |
| 2.9 | CCCCNC(=O)c1cccc(NC(=O)CCCCCNc2ncnc3nc[nH]c23)c1 |

From ChEMBL document CHEMBL1155089, “Discovery of an Aurora kinase inhibitor through site-specific dynamic combinatorial chemistry” (Bioorg Med Chem Lett, 2008)
